Read-outs that look alike come from different tables or passages of the source.
How the values were obtained:
Format in all cases: cell-based
NR1/NR2A = NR1/NR2A (Rattus norvegicus, UniProt P35439+Q00959); experiment: Two electrode voltage clamp, Xenopus oocytes expressing recombinant NR1/NR2A; conditions: for IC50: logistic fit, minimum forced to 0, read-out: 2A IC50; for remaining activity at 100 µM: read-out: 2A percent effect at the maximum tested concentration
Description: (§1) Quality of synthesized cRNA was assessed by gel electrophoresis, and quantity was estimated by spectroscopy and gel electrophoresis. Stage V and VI oocytes were surgically removed from the ovaries of large, well-fed and healthy Xenopus laevis anesthetized with 3-amino-benzoic acid ethyl ester (3 gm/l) as previously described. Clusters of isolated oocytes were incubated with 292 U/ml Worthington (Freehold, N.J.) type IV collagenase or 1.3 mg/ml collagenase (Life Technologies, Gaithersburg, MD; 17018-029) for 2 hr in Ca^2+-free solution comprised of (in mM) 115 NaCl, 2.5 KCl, and 10 HEPES, pH 7.5, with slow agitation to remove the follicular cell layer. Oocytes were then washed extensively in the same solution supplemented with 1.8 mM CaCl2 and maintained in Barth's solution comprised of (in mM): 88 NaCl, 1 KCl, 2.4 NaHCO3, 10 HEPES, 0.82 MgSO4, 0.33 Ca(NO3)2, and 0.91 CaCl2 and supplemented with 100 μg/m1 gentamycin, 10 μg/ml streptomycin, and 10 μg/ml penicillin. Oocytes were manually defolliculated and injected within 24 hrs of isolation with 3-5 ng of NR1 subunit cRNA and 7-10 ng of NR2 cRNA subunit in a 50 nl volume, or 5-10 ng of AMPA or kainate receptor cRNAs in a 50 nl volume, and incubated in Barth's solution at 18° C. for 1-7 d. Glass injection pipettes had tip sizes ranging from 10-20 microns, and were backfilled with mineral oil.
(§2) Two electrode voltage-clamp recordings were made 2-7 days post-injection as previously described. Oocytes were placed in a dual-track plexi-glass recording chamber with a single perfusion line that splits in a Y-configuration to perfuse two oocytes. Dual recordings were made at room temperature (23° C.) using two Warner OC725B two-electrode voltage clamp amplifiers, arranged as recommended by the manufacturer. Glass microelectrodes (1-10 Megaohms) were filled with 300 mM KCl (voltage electrode) or 3 M KCl (current electrode). The bath clamps communicated across silver chloride wires placed into each side of the recording chamber, both of which were assumed to be at a reference potential of 0 mV. Oocytes were perfused with a solution comprised of (in mM) 90 NaCl, 1 KCl, 10 HEPES, and 0.5 BaCl2; pH was adjusted by addition of 1-3 M NaOH of HC1 to 7.4. Oocytes were recorded under voltage clamp at −40 mV. […] In some experiments, 10 μM EDTA was obtained by adding a 1:1000 dilution of 10 mM EDTA, in order to chelate contaminant divalent ions such as Zn^2+. […] Concentration effect curves consisting of 4 to 8 concentrations were obtained in this manner. The baseline leak current at −40 mV was measured before and after recording, and the full recording linearly corrected for any change in leak current. […] Each experiment consisted of recordings from 3 to 10 oocytes obtained from a single frog. Results from multiple experiments were pooled, and the average percent responses at antagonist concentrations were fitted by the equation,
(§3) Percent Response=(100−minimum)/(1+([conc]/IC50)nH)+minimum

NR1/NR2B = NR1/NR2B (Rattus norvegicus, UniProt P35439+Q00960); experiment: Two electrode voltage clamp, Xenopus oocytes expressing recombinant NR1/NR2B; conditions: for remaining activity at 100 µM: read-out: 2B percent effect at the maximum tested concentration
Description: as §1, §2, §3

NR1/NR2C = NR1/NR2C (Rattus norvegicus, UniProt P35439+Q00961); experiment: Two electrode voltage clamp, Xenopus oocytes expressing recombinant NR1/NR2C; conditions: for remaining activity at 100 µM: read-out: 2C percent effect at the maximum tested concentration
Description: as §1, §2, §3

NR1/NR2D = NR1/NR2D (Rattus norvegicus, UniProt P35439+Q62645); experiment: Two electrode voltage clamp, Xenopus oocytes expressing recombinant NR1/NR2D; conditions: for remaining activity at 100 µM: read-out: 2D percent effect at the maximum tested concentration
Description: as §1, §2, §3

[1] = logistic fit, minimum forced to 0, read-out: 2D IC50
[2] = logistic fit, minimum forced to 0, read-out: 2B IC50
[3] = logistic fit, minimum forced to 0, read-out: 2C IC50

Chain of NR1/NR2C (Q00961 20-1237, other chains not shown): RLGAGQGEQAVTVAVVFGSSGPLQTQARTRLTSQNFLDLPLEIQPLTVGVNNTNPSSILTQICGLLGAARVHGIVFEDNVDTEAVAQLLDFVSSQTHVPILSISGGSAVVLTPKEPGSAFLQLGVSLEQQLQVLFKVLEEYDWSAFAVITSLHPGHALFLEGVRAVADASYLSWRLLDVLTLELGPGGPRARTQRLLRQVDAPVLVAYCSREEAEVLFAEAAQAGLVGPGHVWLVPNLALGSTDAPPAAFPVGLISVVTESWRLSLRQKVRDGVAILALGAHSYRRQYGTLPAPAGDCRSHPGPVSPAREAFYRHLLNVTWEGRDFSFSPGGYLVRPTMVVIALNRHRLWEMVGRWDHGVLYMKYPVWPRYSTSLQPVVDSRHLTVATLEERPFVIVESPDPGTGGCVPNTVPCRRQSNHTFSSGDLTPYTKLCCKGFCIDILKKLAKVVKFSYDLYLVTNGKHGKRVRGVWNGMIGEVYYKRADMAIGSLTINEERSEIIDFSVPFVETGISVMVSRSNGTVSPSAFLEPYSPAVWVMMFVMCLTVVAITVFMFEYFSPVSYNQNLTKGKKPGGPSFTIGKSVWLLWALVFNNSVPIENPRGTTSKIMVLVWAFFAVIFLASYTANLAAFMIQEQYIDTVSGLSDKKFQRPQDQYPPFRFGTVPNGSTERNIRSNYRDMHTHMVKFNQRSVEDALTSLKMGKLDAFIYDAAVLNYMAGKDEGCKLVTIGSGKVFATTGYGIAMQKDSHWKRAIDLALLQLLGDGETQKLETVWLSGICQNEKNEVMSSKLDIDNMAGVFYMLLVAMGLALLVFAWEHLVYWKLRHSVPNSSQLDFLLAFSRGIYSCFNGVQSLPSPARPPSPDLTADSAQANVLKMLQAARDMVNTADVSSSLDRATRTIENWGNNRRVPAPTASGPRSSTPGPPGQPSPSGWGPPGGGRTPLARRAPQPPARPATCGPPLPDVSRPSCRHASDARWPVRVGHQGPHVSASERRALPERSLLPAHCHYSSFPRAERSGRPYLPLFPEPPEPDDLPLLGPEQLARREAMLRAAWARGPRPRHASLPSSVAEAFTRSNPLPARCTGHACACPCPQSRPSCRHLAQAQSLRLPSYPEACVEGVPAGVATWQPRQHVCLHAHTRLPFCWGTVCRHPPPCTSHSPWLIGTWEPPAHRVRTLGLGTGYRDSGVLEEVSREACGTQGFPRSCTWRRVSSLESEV
Chain of NR1/NR2D (Q62645 28-1323, other chains not shown): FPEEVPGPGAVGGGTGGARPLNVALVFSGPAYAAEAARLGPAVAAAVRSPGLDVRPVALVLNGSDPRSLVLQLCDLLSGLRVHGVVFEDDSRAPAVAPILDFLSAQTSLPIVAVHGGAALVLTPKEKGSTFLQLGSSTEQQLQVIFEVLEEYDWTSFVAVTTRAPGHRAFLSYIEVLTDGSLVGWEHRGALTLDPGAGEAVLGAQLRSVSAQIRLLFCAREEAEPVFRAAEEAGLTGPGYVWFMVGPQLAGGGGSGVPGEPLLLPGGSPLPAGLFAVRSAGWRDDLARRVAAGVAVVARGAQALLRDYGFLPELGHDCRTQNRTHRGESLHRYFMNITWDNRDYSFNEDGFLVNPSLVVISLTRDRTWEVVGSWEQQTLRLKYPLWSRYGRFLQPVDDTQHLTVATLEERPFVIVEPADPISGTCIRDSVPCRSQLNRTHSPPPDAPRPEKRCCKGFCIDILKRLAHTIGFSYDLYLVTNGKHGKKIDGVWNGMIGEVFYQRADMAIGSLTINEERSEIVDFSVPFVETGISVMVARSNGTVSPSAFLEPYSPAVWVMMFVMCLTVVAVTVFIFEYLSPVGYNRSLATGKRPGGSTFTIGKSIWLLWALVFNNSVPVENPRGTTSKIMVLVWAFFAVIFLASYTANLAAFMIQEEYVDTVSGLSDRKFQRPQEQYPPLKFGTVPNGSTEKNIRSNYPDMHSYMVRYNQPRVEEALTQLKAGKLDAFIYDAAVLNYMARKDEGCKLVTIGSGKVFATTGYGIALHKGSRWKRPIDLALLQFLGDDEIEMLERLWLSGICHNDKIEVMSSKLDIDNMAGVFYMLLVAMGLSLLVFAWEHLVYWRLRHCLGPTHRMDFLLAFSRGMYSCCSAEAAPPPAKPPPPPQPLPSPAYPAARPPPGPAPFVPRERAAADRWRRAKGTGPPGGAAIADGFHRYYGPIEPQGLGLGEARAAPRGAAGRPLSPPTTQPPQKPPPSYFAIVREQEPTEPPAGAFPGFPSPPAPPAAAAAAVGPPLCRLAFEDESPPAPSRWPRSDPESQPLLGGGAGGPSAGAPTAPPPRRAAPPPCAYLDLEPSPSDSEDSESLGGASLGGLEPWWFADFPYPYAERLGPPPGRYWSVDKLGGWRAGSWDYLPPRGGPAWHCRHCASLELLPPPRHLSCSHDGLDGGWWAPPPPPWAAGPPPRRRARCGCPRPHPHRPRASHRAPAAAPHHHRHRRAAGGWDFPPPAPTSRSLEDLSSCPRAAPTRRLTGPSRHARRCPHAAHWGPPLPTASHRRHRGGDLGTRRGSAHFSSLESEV
Chain of NR1/NR2A (Q00959 23-1464, other chains not shown): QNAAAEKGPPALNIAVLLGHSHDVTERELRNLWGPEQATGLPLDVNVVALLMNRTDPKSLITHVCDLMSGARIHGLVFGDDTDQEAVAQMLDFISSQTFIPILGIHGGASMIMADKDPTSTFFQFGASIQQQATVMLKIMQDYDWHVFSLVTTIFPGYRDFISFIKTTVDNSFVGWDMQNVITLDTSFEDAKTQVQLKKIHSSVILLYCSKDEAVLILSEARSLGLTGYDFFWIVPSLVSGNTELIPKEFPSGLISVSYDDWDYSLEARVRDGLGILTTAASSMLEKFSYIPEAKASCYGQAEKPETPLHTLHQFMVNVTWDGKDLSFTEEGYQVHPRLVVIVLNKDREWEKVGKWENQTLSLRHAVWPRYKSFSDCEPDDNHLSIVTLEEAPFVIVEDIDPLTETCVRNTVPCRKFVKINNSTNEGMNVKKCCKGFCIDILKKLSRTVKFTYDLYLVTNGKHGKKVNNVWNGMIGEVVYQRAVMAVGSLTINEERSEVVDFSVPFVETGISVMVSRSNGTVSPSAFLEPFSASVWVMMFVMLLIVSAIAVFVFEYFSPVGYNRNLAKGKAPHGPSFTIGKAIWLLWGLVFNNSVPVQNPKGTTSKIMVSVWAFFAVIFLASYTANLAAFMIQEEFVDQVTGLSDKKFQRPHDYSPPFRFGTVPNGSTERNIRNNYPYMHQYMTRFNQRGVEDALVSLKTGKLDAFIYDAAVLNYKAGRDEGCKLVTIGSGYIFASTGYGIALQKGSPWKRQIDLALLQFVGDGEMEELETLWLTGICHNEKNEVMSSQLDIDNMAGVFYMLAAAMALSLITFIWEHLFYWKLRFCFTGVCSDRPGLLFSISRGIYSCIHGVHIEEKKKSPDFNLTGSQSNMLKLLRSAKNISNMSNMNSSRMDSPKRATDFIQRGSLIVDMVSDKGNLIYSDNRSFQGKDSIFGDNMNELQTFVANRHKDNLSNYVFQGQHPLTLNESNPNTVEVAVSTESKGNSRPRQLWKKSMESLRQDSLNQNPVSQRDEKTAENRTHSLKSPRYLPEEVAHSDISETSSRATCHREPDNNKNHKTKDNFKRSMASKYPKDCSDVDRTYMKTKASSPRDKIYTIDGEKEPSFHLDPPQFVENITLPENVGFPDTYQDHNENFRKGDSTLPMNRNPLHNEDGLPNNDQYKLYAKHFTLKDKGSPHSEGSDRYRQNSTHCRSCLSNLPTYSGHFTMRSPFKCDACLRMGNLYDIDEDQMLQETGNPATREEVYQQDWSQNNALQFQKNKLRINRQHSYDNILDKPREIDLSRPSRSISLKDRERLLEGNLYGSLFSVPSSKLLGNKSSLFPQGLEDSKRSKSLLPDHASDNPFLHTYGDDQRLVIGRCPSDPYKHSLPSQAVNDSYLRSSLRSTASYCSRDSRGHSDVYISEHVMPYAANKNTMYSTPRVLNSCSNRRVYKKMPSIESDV

Compound `O=C(O)c1ccc(C(=O)Nc2cccc3cc[nH]c23)cc1` [1063-28] has an IC50 (NR1/NR2A) of 245 µM, a remaining activity at 100 µM (NR1/NR2B; at 100 μM) of 95% and a remaining activity at 100 µM (NR1/NR2C) of 98%. For the same compound, the remaining activity at 100 µM (NR1/NR2D) was 89%.

In the case of `O=C(O)CCC(=O)N1N=C(c2c(-c3ccccc3)c3cc(Br)ccc3[nH]c2=O)CC1c1ccccc1` (stereo not shown) [compound 1183], the IC50 (NR1/NR2D; [1]) is reported as 20 µM.

Compound `CCN(CC)C(=O)Oc1ccc(C(=O)Nc2cccc3[nH]ccc23)cc1` [1063-26] has a remaining activity at 100 µM (NR1/NR2A) of 88%, an IC50 (NR1/NR2B) of 560 µM and an IC50 (NR1/NR2C) of 8 µM. It also gave an IC50 (NR1/NR2D) of 6 µM.

With `Cn1c(=O)oc2ccc(C(=O)Nc3cccc4ccccc34)cc21` [1063-29] the remaining activity at 100 µM (NR1/NR2A; at 100 μM) was 92%, the remaining activity at 100 µM (NR1/NR2B; at 100 μM) was 81% and the remaining activity at 100 µM (NR1/NR2C) was 80%. For the same compound, the remaining activity at 100 µM (NR1/NR2D) was 75%.

Compound `CCN(CC)C(=O)Oc1ccc(C(=O)Nc2cccc3c2CCCC3)cc1` [1063-18] has a remaining activity at 100 µM (NR1/NR2A) of 95%, an IC50 (NR1/NR2B) of 214 µM and an IC50 (NR1/NR2C) of 23 µM. The IC50 (NR1/NR2D) was 20 µM.

Compound `O=C(O)CCC(=O)N1N=C(c2c(-c3ccccc3)c3cc(Br)ccc3[nH]c2=O)CC1c1ccccc1Cl` (stereo not shown) [compound 1209] has an IC50 (NR1/NR2A) of 79 µM, an IC50 (NR1/NR2B; [2]) of 35 µM and an IC50 (NR1/NR2C; [3]) of 22 µM. It also gave an IC50 (NR1/NR2D; [1]) of 13 µM.

For `CCN(CC)C(=O)c1ccc(C(=O)Nc2cccc3cc[nH]c23)cc1` [1063-27], the IC50 (NR1/NR2A) was 497 µM, the remaining activity at 100 µM (NR1/NR2B; at 100 μM) was 83% and the remaining activity at 100 µM (NR1/NR2C) was 93%. It also gave a remaining activity at 100 µM (NR1/NR2D) of 82%.

For `CCC(CC)C(=O)Oc1ccc(C(=O)Nc2cccc3ccccc23)cc1` [1063-9], the remaining activity at 100 µM (NR1/NR2A; at 100 μM) was 111%, the remaining activity at 100 µM (NR1/NR2B; at 100 μM) was 98% and the remaining activity at 100 µM (NR1/NR2C) was 94%. For the same compound, the remaining activity at 100 µM (NR1/NR2D) was 86%.

Compound `O=C(O)CCC(=O)N1N=C(c2c(-c3ccccc3)c3cc(Br)ccc3[nH]c2=O)CC1c1ccccc1F` (stereo not shown) [compound 1178] has an IC50 (NR1/NR2D; [1]) of 21 µM.

Compound `CCN(CC)C(=O)Oc1cccc(C(=O)Nc2cccc3ccccc23)c1` [1063-24] has a remaining activity at 100 µM (NR1/NR2A; at 100 μM) of 84%, a remaining activity at 100 µM (NR1/NR2B; at 100 μM) of 95% and a remaining activity at 100 µM (NR1/NR2C) of 93%. The remaining activity at 100 µM (NR1/NR2D) was 84%.

`O=C(Nc1cccc2ccccc12)c1ccc(OC(=O)N2CCCC2)cc1` [1063-6] gave a remaining activity at 100 µM (NR1/NR2A; at 100 μM) of 87%, an IC50 (NR1/NR2B; [2]) of 502 µM and an IC50 (NR1/NR2C; [3]) of 135 µM. The IC50 (NR1/NR2D; [1]) was 257 µM.

With `CCN(CC)C(=O)Nc1ccc(C(=O)Nc2cccc3ccccc23)cc1` [1063-11] the remaining activity at 100 µM (NR1/NR2A; at 100 μM) was 102%, the remaining activity at 100 µM (NR1/NR2B; at 100 μM) was 88% and the IC50 (NR1/NR2C; [3]) was 687 µM. The IC50 (NR1/NR2D; [1]) was 527 µM.

`CC(C)N(C(=O)Oc1ccc(C(=O)Nc2ccc3cc[nH]c3c2)cc1)C(C)C` [1063-15] gave a remaining activity at 100 µM (NR1/NR2A) of 74%, an IC50 (NR1/NR2B) of 44 µM and an IC50 (NR1/NR2C) of 11 µM. It also gave an IC50 (NR1/NR2D) of 12 µM.

With `O=C(O)CCC(=O)N1N=C(c2c(-c3ccccc3)c3cc(Cl)ccc3[nH]c2=O)CC1c1ccccc1` (stereo not shown) [compound 1149] the IC50 (NR1/NR2D; [1]) was 32 µM.

`O=C(Nc1cccc2ccccc12)c1ccc(OC(=O)C2CC2)cc1` [1063-10] gave a remaining activity at 100 µM (NR1/NR2A; at 100 μM) of 111%, a remaining activity at 100 µM (NR1/NR2B; at 100 μM) of 92% and a remaining activity at 100 µM (NR1/NR2C) of 86%. For the same compound, the remaining activity at 100 µM (NR1/NR2D) was 81%.

`O=C(Nc1cccc2ccccc12)c1ccc2oc(=O)[nH]c2c1` [1063-31] gave an IC50 (NR1/NR2A) of 550 µM, an IC50 (NR1/NR2B; [2]) of 334 µM and an IC50 (NR1/NR2C; [3]) of 526 µM. The IC50 (NR1/NR2D; [1]) was 366 µM.

`CCN(CC)C(=O)Oc1ccc(C(=O)Nc2ccc3c(c2)CCCC3)cc1` [1063-19] showed a remaining activity at 100 µM (NR1/NR2A) of 89%, a remaining activity at 100 µM (NR1/NR2B) of 74% and an IC50 (NR1/NR2C) of 58 µM. For the same compound, the IC50 (NR1/NR2D) was 26 µM.

In the case of `O=C(Nc1cccc2ccccc12)c1ccc(OC(=S)N2CCOCC2)cc1` [compound 1374], the IC50 (NR1/NR2D; [1]) is reported as over 1000 µM.

Work on `CCN(CC)C(=S)Oc1ccc(C(=O)Nc2ccc(F)cc2)cc1` [compound 1379] yielded a remaining activity at 100 µM (NR1/NR2A; at 100 μM) of 99%, a remaining activity at 100 µM (NR1/NR2B; at 100 μM) of 88% and an IC50 (NR1/NR2C; [3]) of 247 µM. For the same compound, the IC50 (NR1/NR2D; [1]) was 55 µM.

From patent publication US20110319416A1, “Subunit Selective NMDA Receptor Antagonists For The Treatment Of Neurological Conditions” (EMORY UNIVERSITY, priority 2009, published 2011)
